# Where “and” joins values, the source holds several entries; their conditions need not be identical. Equal values may be shown once. Read-outs that look alike come from different tables or passages of the source.
# Legend:
# mice [1] = assay: Compound 48/80 scratching test; assay type: in vivo
# mice [2] = assay: Rotarod test; assay type: in vivo
# mice [3] = assay: Formalin test; assay type: in vivo; details: s.c. 5 min before formalin, licking time phase II
# KOR [4] = biological target: T1, KOR (Homo sapiens, UniProt P41145); assay: GloSensor cAMP assay; assay type: cell-based; details: for more potent than U50,488H, inhibition of cAMP accumulation: EC50 ratio vs U50,488H
# T1 sequence (P41145 whole entry): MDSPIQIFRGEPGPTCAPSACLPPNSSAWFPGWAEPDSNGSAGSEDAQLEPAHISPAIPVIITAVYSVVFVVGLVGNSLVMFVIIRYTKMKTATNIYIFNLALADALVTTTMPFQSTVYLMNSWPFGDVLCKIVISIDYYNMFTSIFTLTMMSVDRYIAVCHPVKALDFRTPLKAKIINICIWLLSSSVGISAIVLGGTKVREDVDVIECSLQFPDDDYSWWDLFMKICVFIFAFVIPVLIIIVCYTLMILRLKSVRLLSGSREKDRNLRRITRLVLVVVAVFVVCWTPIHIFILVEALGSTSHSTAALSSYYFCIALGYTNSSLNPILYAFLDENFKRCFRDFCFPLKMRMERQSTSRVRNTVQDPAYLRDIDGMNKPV
# KOR [5] = biological target: T1, KOR; assay: Tango assay; assay type: cell-based
# mice [6] = assay: Novelty-induced locomotor activity; assay type: in vivo; details: 1, 3, 5 mg/kg s.c., 0–30 min post-injection
# NOR = NOR (Homo sapiens, UniProt P41146); assay: [35S]GTPγS binding to membranes of CHO cells stably expressing the NOR; assay type: biochemical; details: for agonist type at the NOR: [35S]GTPγS binding, relatively low potency
# NOR, sequence (P41146 whole entry): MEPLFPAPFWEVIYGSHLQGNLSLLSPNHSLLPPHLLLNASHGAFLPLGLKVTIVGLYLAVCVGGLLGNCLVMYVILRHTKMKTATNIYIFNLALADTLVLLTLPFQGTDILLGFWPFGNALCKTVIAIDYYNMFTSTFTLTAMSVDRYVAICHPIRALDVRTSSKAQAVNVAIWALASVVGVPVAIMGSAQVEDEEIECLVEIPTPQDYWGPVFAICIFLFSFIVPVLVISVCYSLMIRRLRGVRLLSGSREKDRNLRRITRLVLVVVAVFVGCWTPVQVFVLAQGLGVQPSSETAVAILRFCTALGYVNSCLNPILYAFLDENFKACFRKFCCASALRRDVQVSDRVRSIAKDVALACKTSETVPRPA
# MOR = MOR (Rattus norvegicus, UniProt P33535); assay: [35S]GTPγS binding to membranes of CHO cells stably expressing the MOR; assay type: biochemical; details: for Maximal Effect, MOR: % of maximal [35S]GTPγS binding of reference full agonist DAMGO; for agonist type at the MOR: [35S]GTPγS binding
# MOR, sequence (P33535 whole entry): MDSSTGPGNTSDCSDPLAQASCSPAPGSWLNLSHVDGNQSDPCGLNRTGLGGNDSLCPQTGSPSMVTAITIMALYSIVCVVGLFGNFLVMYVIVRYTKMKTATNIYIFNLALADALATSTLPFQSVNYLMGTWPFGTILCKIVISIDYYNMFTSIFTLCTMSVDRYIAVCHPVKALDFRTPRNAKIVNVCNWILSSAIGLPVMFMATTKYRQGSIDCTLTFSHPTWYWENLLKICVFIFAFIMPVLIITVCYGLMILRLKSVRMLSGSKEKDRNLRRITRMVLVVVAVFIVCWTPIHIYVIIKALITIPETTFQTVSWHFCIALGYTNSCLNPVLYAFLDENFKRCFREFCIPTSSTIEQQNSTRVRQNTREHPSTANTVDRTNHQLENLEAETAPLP
# mice [7] = assay: Conditioned place aversion
# DOR = DOR (Mus musculus, UniProt P32300); assay: [35S]GTPγS binding to membranes of CHO cells stably expressing the DOR; assay type: biochemical; details: for agonist type at the DOR: [35S]GTPγS binding, relatively low potency
# DOR, sequence (P32300 whole entry): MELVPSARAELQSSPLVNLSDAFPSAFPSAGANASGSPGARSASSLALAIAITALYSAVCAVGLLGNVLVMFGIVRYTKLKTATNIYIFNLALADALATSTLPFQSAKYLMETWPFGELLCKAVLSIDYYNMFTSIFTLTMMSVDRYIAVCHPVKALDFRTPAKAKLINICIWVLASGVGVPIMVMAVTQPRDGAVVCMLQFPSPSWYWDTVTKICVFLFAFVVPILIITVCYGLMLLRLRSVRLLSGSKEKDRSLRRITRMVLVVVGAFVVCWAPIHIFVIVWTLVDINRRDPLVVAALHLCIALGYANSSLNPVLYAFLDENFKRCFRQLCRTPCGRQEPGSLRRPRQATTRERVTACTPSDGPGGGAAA
# KOR [8] = biological target: T1, KOR; assay: [35S]GTPγS binding to membranes of CHO cells stably expressing the KOR; assay type: biochemical; details: for Maximal Effect, KOR: % of maximal [35S]GTPγS binding of reference full agonist (−)U50,488H
# P-glycoprotein = details: cited from earlier work
# mice [9] = details: late phase of the formalin test; cited from earlier work
# mice [10] = details: cited from earlier work
# mice [11] = details: cited from earlier work; remark: listed apart in the source
# mice [12] = details: nalfurafine up to 20 μg/kg, U50,488 5 mg/kg; cited from earlier work
# human KOR = assay: G protein bias from RAi of GloSensor cAMP and Tango assays; assay type: cell-based; details: RAi−G divided by RAi−b, U50,488H as balanced agonist
# mouse = mouse tail flick test; cited from earlier work
smiles,measurement,setting,value
"Oc1ccc2c3c1O[C@H]1c4[nH]c5c(c4C[C@@]4(O)[C@@H](C2)N(CC2CC2)CC[C@]314)C[C@@]1(O)[C@H]2Cc3ccc(O)c4c3[C@@]1(CCN2CC1CC1)[C@H]5O4 [norBNI, nor-binaltorphimine]","effect on compound 48/80-induced scratching, alone",mice [1]; norBNI 20 mg/kg i.p. 20 h before saline,no effects
CN(C(=O)/C=C/c1ccoc1)[C@@H]1CC[C@@]2(O)[C@H]3Cc4cccc5c4[C@@]2(CCN3CC2CC2)[C@H]1O5 [42B],rotarod performance at 1 mg/kg,"mice [2]; 1 mg/kg, at 10 min",significant effect
same,rotarod performance,"mice [2]; 1, 3, 5 mg/kg s.c., tested 10, 20, 30, 40 min",dose-dependently caused performance impairment
same,time of peak effect in rotarod test,mice [2]; among time points tested 10–40 min,10 min
same,time of return to control level in rotarod test,"mice [2]; mouse, in vivo",40 min
same,effect of norBNI pretreatment on anti-scratch activity,mice [1]; norBNI 20 mg/kg i.p. 20 h before 42B 3 mg/kg,eliminated the anti-scratch activity
same,"A50, compound 48/80-induced scratching","mice [1]; s.c. 20 min before compound 48/80, bouts counted 30 min, mice",2.82 mg/kg
same,"A50, formalin test",mice [3],2.08 mg/kg
same,"more potent than U50,488H, inhibition of cAMP accumulation",KOR [4],~ 2 fold
same,GloSensor cAMP assay Emax,"KOR [4]; maximal degree of inhibition, mean ± SEM n=3",74.40±1.68%
same,EC50,"KOR [4]; read-out: GloSensor cAMP assay EC50, inhibition of cAMP, mean ± SEM n=3",0.82 ± 0.18 nM
same,"lower potency for β-arrestin recruitment than U50,488H","KOR [5]; EC50 ratio vs U50,488H",~ 2 fold
same,lower potency for β-arrestin recruitment than nalfurafine,KOR [5]; EC50 ratio vs nalfurafine,~ 4 fold
same,EC50,"KOR [5]; read-out: Tango assay EC50, β-arrestin2 recruitment, mean ± SEM n=3",3.22 ± 0.42 nM
same,Tango assay Emax,"KOR [5]; β-arrestin2 recruitment, mean ± SEM n=3, % printed in b16 only",116.8±1.0 %
same,novelty-induced hyperlocomotion,mice [6],significant and dose-dependent reduction
same,agonist type at the NOR,NOR,full agonism
same,"Maximal Effect, MOR",MOR,49% and 48.87 ± 2.45%
same,agonist type at the MOR,MOR,partial agonists
same,CPA,"mice [7]; 1, 3, 5 mg/kg s.c., 6 days conditioning",did not cause CPA
same,effect of MOR blockade by naloxone on lack of CPA,mice [7]; naloxone 1 mg/kg s.c. 25 min before 42B 3 mg/kg,did not affect its lack of CPA
same,"Maximal Effect, DOR",DOR; % of maximal [35S]GTPγS binding of reference full agonist DPDPE,134.7 ± 3.4%
same,agonist type at the DOR,DOR,full agonism
same,"Maximal Effect, KOR",KOR [8],91% and 91.34 ± 1.15%
same,agonist type at the KOR,KOR [8]; [35S]GTPγS binding,full agonists
same,EC50,"KOR [8]; read-out: EC50, KOR, [35S]GTPγS binding, CHO membranes, 100 mM NaCl, mean ± SEM n=3–4",25.6 ± 1.5 nM
CN(C(=O)/C=C/c1ccoc1)[C@@H]1CC[C@@]2(O)[C@H]3Cc4ccc(O)c5c4[C@@]2(CCN3CC2CC2)[C@H]1O5 [Nalfurafine],more potent than 42B in the anti-scratch test,mice [1]; A50 ratio nalfurafine vs 42B,about 340 x
same,P-glycoprotein substrate,P-glycoprotein,P-glycoprotein substrate
same,"more potent than U50,488H, inhibition of cAMP accumulation",KOR [4],~ 9 fold
same,Emax,"KOR [4]; HEK-293T, read-out: GloSensor cAMP assay Emax",69.8 ± 1.53%
same,more potent than 42B in inhibition of forskolin-stimulated adenylyl cyclase (Glosensor assay),KOR [4]; nalfurafine vs 42B,~ 5 X
same,"A50, formalin test",mice [9],5.8 µg/kg
same,Emax,"KOR [5]; HEK293, read-out: Tango assay Emax",108 ± 2.6%
same,"A50, compound 48/80-induced scratching",mice [10],8.0 µg/kg
same,rotarod performance,"mice [11]; 20 μg/kg, at 30 min and 40 min following injection","small, yet significant, effects"
same,time of peak effect in rotarod test,mice [11]; slight lowering effect,30 min
same,CPA,mice [12],did not produce CPA
same,EC50,NOR,280 ± 17.7 nM
same,agonist type at the NOR,NOR,full agonism
same,Emax,"NOR; read-out: Maximal Effect, NOR",120 ± 2.2%
same,EC50,MOR,3.11 ± 0.63 nM
same,"Maximal Effect, MOR",MOR,73.88 ± 2.93%
same,agonist type at the MOR,MOR,partial agonists
same,G Biased factor (95% CI),human KOR,4.49 (1.79–11.1)
same,G Biased factor (95% CI),human KOR; listed as nalfurafine,4.49
same,agonist type at the DOR,DOR,full agonism
same,Emax,"DOR; read-out: Maximal Effect, DOR",129 ± 3.2%
same,"Maximal Effect, KOR",KOR [8],90.90 ± 3.25%
same,agonist type at the KOR,KOR [8]; [35S]GTPγS binding,full agonists
same,potency at the KOR higher than that of 42B,"KOR [8]; [35S]GTPγS binding EC50 ratio, nalfurafine vs 42B",~ 250 fold
C=CCN1CC[C@]23c4c5ccc(O)c4O[C@H]2C(=O)CC[C@@]3(O)[C@H]1C5 [naloxone],"more potent in antagonizing morphine- than U50,488- or spiradoline-induced antinociception",mouse,20–36 times
same,CPA or CPP in the naloxone experiment,"mice [7]; naloxone 1 mg/kg alone, U50,488 5 mg/kg as positive control",Neither naloxone (1 mg/kg) alone nor a combination of naloxone (1 mg/kg) and 42B (3 mg/kg) caused CPA or CPP

# Source: publication PMC8336721 (ACS chemical neuroscience, 2020)
